Counter-ions that a name gives are not always drawn.

The target in assay [1] is T1, hNav1.7 (Homo sapiens (Human), UniProt Q15858). The assay is described as follows: Tritiated compound binding to membranes from cells expressing hNav1.7 and the β1 subunit (Nav1.7 LBA EVO). The conditions noted are these: competitive binding vs [3H]compound, membranes with hNav1.7 and β1 subunit. A digest of the protocol: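 Membranes from cells expressing hNav1.7 plus β1 were incubated at room temperature with [3H]-labelled Nav1.7 inhibitor and test compound in 100 mM NaCl, 20 mM Tris pH 7.4, 0.01% BSA. Two protocols: 100 pM radioligand for 18 h, or 300 pM for 3 h. Non-specific binding was set with 1 μM unlabelled compound; filtration/scintillation gave IC50 by 4-parameter fit.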
Target sequence in this assay (Q15858 whole entry, looked up): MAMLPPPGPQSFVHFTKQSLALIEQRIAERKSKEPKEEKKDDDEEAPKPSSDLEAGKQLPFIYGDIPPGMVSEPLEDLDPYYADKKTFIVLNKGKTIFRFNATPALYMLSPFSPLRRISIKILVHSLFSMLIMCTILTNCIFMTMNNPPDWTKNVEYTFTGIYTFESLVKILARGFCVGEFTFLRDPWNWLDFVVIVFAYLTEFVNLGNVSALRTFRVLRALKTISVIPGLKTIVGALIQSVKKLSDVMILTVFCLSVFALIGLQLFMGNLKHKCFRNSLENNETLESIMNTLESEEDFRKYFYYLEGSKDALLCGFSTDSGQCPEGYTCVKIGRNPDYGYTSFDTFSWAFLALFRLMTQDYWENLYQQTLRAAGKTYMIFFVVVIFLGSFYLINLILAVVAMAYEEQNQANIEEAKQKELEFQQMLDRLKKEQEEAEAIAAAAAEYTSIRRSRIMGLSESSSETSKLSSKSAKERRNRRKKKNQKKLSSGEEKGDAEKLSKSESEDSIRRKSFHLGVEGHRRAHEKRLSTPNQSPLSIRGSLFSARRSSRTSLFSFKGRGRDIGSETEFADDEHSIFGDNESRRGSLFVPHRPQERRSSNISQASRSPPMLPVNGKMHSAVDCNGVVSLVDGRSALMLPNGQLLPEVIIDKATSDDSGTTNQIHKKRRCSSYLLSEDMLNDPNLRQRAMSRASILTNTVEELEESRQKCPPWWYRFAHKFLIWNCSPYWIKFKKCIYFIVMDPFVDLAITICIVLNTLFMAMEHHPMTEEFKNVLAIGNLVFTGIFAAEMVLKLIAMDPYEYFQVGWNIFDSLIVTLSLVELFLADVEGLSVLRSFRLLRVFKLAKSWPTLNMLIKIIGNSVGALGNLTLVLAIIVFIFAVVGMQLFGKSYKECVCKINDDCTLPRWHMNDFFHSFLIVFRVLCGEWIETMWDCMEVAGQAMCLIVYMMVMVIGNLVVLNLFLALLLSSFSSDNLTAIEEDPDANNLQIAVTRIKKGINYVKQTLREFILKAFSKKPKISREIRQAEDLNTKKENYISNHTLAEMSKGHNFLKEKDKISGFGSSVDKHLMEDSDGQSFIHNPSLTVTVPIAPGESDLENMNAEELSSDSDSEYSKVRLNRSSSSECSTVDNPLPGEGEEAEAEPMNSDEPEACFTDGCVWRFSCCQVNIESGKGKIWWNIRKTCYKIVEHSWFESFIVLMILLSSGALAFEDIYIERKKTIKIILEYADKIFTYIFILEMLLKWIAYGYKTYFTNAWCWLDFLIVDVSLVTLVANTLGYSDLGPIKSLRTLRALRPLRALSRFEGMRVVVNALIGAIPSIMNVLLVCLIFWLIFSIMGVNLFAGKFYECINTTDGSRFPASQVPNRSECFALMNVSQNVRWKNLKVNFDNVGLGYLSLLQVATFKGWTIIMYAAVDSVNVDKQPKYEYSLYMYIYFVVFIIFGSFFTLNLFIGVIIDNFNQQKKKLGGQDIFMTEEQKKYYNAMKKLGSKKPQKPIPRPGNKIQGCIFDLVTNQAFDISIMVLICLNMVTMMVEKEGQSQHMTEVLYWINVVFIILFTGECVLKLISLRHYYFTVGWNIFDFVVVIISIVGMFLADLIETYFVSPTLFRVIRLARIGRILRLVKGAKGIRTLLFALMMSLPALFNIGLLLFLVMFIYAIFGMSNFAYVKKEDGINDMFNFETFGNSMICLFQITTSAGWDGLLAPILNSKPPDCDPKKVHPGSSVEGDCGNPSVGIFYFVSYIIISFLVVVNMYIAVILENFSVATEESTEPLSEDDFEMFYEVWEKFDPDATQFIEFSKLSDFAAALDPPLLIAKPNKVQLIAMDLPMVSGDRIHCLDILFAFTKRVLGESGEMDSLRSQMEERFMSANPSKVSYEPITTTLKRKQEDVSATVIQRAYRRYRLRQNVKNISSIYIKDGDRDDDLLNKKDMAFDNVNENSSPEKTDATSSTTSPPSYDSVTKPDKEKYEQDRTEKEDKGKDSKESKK
Target sequence in this assay (Q07699 whole entry partner, looked up): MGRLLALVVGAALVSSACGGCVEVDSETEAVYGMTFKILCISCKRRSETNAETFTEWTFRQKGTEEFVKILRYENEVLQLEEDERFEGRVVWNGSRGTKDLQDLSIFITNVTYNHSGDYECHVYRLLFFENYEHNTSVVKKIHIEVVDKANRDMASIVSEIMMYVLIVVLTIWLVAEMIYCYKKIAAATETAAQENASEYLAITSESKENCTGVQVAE

Assay [2] deals with T1, hNav1.7. The experiment in a line: Patch voltage clamp electrophysiology assay (EP), Syncropatch 384PE, CHO cells expressing Nav1.7. The assay is classed as cell-based. The conditions noted are these: holding potential −50 mV, 7.5 min compound incubation; read-out: EP_SP hNav1.7 EVO IC50. From the text: Example 64c. Electrophysiological Assay (EP) (In Vitro Assay)
Patch voltage clamp electrophysiology allows for the direct measurement and quantification of block of voltage-gated sodium channels (NaV's), and allows the determination of the time- and voltage-dependence of block which has been interpreted as differential binding to the resting, open, and inactivated states of the sodium channel (Hille, B., Journal of General Physiology (1977), 69: 497-515).
The following voltage clamp electrophysiology studies are performed on representative compounds using cells heterologously expressing Nav1.7 or Nav1.5 channels. cDNAs for Nav1.7 (NM 002977) and Nav1.5 (AC137587) are stably expressed in Chinese Hamstr Ovary (CHO) cells and CHL (Chinese Hamster Lung) cells respectively. Sodium currents are measured in the whole-cell configuration using Syncropatch 384PE ([…], Germany). 1NPC®-384 chips with custom medium resistance and single hole mode are used. Internal solution consists of (in mM): […], 10CsCl, 20EGTA, and 10Hepes (pH adjusted to 7.2); and external solution contains (in mM): 60NMDG, 80NaCl, 4 KCl, 1MgCl2, 2CaCl2, 2D-Glucose monohydrate, 10Hepes (pH adjusted to 7.4 with NaOH).
After system flushing, testing compounds are dissolved in external solution containing 0.1% Pluronic F-127. The chip is moved into the measuring head and the instrument primes the chip with external and internal solutions. 10 μl cells are added to the chip from a cell hotel, and a negative pressure of −50 mBar is applied to form a seal. Following treatment with seal enhancer solution and wash-off with external solution, negative pressure of −250 mbar is applied for 1 second to achieve the whole-cell configuration, followed by three washing steps in external solution. 20 μl of compounds is added to 40 μl in each well (1:3 dilution of compounds), and after mixing, 20 μl is removed so the volume is retained at 40 ul. After approximately 13 minutes recordings, 20 μl/well of 2 uM TTX, or 333 uM Tetracaine (for Nav1.5) is added to achieve full block.
For voltage protocol, an holding potential of −50 mV is applied during the whole experiment. A depolarizing step is applied to −10 mV for 10 ms, followed by a hyperpolarization step to −150 mV for 20 ms to allow channel recovery from inactivation. A second depolarizing step is applied from −150 mV to −10 mV for 10 ms, where currents are measured to derive blocking effects of compounds. Inhibition is determined based on 7.5 min of compound incubation.
Target sequence in this assay (Q15858 other isoform, or with tags, fused parts or gaps): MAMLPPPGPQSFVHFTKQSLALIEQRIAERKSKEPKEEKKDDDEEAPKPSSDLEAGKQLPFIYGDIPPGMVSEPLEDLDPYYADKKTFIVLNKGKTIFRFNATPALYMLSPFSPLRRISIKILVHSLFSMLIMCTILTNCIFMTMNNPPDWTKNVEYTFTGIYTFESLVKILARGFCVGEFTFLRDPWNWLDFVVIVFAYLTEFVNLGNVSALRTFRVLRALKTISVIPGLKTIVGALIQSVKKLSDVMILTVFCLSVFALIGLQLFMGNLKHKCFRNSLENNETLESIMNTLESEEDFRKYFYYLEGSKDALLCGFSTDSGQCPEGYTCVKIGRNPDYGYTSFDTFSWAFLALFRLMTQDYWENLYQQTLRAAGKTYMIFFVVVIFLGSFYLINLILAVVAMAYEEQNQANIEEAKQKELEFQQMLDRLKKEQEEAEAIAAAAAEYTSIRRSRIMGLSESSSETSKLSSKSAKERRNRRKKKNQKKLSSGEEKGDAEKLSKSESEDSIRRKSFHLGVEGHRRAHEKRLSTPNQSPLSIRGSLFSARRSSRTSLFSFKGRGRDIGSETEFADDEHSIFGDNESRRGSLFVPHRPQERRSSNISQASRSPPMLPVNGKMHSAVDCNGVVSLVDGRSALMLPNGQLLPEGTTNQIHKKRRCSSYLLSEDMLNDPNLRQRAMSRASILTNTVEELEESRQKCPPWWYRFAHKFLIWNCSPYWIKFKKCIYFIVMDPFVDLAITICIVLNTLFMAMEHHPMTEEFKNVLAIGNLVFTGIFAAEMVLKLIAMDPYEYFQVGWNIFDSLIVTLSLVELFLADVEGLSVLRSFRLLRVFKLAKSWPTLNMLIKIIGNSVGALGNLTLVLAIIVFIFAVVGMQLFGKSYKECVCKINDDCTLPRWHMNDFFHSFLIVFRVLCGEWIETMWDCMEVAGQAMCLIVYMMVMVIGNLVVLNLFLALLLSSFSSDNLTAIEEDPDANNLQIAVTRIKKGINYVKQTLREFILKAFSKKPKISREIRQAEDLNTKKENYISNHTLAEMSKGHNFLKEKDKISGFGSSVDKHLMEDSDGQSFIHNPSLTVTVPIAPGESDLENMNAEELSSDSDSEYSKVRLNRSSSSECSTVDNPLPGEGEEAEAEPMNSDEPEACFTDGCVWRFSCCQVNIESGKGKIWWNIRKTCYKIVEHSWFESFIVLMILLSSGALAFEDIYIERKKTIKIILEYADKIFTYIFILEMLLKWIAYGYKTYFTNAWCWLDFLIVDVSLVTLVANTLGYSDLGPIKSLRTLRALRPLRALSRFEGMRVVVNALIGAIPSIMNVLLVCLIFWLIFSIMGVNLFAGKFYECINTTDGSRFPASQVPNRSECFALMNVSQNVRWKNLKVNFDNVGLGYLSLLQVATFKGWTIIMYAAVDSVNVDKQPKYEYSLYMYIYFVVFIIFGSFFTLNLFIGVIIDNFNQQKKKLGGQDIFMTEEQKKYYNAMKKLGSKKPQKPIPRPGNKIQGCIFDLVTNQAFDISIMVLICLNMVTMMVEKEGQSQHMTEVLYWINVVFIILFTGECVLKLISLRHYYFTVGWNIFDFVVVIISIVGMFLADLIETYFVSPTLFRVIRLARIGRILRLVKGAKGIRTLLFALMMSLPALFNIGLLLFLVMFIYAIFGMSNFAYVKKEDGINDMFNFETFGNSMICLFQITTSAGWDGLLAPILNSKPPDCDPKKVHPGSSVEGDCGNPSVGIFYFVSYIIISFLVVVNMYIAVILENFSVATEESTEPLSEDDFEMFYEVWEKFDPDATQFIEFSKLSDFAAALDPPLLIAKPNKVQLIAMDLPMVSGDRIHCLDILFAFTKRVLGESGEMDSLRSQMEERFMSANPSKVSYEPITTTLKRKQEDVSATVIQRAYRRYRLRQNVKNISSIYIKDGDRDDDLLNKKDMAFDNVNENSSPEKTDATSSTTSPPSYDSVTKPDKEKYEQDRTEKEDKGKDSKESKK

With `CN(C)[C@H]1C[C@@H](c2cccc(Cl)c2)CC[C@@H]1Oc1ncc(S(=O)(=O)Nc2ccncn2)cc1Cl` [Example 27, 5-Chloro-6-(((1S,2S,4S)-4-(3-chlorophenyl)-2-(dimethylamino)cyclohexyl)oxy)-N-(pyrimidin-4-yl)pyridine-3-sulfonamide], the IC50 (commonly the concentration that gives 50% inhibition) at hNav1.7 [1] was found to be 7.12 nM; at hNav1.7 [2] it was 0.574 nM.

In the case of `O=S(=O)(Nc1ccncn1)c1ccc(N[C@H]2CC[C@H](c3cccc(OC(F)(F)F)c3)C[C@@H]2N2CCCC2)nc1` [Example 9, N-(pyrimidin-4-yl)-6-(((1S,2S,4S)-2-(pyrrolidin-1-yl)-4-(3-(trifluoromethoxy)phenyl)cyclohexyl)-amino)pyridine-3-sulfonamide formate], the IC50 stood at 4.11 nM at hNav1.7 [1] and 0.664 nM at hNav1.7 [2].

Consider “6-(((1S,2S,4S)-2-(dimethylamino)-4-(6-(trifluoromethyl)pyridin-2-yl)cyclohexyl)oxy)-2-methyl-N-(pyrimidin-4-yl)pyridine-3-sulfonamide [Example 51]”, for which the IC50 at hNav1.7 [1] came to 0.985 nM; on hNav1.7 [2], 4.59 nM.

For the compound `Cc1nc(O[C@H]2CC[C@H](c3ccc(Cl)c(Cl)c3)C[C@@H]2N(C)C)ccc1S(=O)(=O)Nc1ccncn1` [Example 37, 6-(((1S,2S,4S)-4-(3,4-dichlorophenyl)-2-(dimethylamino)cyclohexyl)oxy)-2-methyl-N-(pyrimidin-4-yl)pyridine-3-sulfonamide], the results for the concentration for half-maximal inhibition (IC50) at hNav1.7 [1] and on hNav1.7 [2] were 1.36 nM and 0.301 nM, respectively.

These data come from patent US12209075B2, “Pyridine-sulfonamide derivatives as sodium channel inhibitors” (GENENTECH, INC., priority 2018, dated 2025).
